Where “and” joins values, the source holds several entries; their conditions need not be identical. Identical values can stand only once. Like-named read-outs stand apart in the source and are kept apart here.
Molecular target: T1, Human TLR7 (Homo sapiens, UniProt Q9NYK1)
T1 construct: stably and individually express human TLR4, TLR7 or TLR9 full-length ORF cDNAs; host or cells: HEK-293 (ATCC) with ELAM-1 NF-kappaB luciferase reporter
T1 sequence (Q9NYK1 27-1049): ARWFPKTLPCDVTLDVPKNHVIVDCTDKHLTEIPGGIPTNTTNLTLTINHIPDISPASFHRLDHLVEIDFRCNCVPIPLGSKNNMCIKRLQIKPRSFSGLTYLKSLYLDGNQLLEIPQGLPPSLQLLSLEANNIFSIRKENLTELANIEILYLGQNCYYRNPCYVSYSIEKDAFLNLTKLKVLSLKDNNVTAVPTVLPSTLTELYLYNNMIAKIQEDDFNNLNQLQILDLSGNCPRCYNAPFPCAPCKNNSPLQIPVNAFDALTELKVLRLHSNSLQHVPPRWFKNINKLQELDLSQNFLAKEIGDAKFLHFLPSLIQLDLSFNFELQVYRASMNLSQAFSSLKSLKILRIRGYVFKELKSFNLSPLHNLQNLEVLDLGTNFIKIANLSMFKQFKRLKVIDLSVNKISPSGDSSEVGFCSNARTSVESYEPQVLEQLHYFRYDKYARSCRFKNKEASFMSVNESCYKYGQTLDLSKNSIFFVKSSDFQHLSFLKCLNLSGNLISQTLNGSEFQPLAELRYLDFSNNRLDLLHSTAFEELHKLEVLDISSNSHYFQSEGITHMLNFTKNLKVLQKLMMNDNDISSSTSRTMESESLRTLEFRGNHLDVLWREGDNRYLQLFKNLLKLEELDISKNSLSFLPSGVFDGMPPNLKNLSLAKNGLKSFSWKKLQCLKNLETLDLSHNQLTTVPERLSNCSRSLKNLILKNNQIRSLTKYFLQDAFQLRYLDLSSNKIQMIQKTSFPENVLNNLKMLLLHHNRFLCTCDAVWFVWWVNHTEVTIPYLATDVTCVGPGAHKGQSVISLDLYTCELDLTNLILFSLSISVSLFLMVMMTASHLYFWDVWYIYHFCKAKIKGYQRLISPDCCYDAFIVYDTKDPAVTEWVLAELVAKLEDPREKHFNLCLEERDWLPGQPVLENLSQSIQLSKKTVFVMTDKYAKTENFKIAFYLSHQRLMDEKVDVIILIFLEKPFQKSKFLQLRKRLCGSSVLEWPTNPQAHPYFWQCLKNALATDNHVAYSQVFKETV
Assay: HEK-293 human TLR7 NF-kappaB luciferase reporter assay (CL097)
Type: cell-based
Description: Effects on mouse TLR7 were also compared. Cells were stimulated overnight with TLR7/8 agonist CL097 at pre-determined ED70-80: 3 ug/ml for HEK-hTLR7, 1.5 ug/ml for HEK-mTLR7 and 12 ug/ml for HEK-hTLR8, before reading luminescence intensity. Three tests were performed and IC50 value was determined using Graphpad Prism 6 nonlinear regression curve fit.
HEK-293 cells (ATCC) were engineered to stably express a NF-kappaB transcription factor inducible E-selectin (ELAM-1) luciferase reporter derived from the plasmid pGL3 (Promega) containing base pairs −2241 bp to −254 bp from the promoter of the human E-selectin gene (Accession No. NM_000450). These cells were then subsequently engineered to stably and individually express human TLR4, TLR7 or TLR9 full-length ORF cDNAs. Human TLR4 cDNA (Accession No. NM_138554) was cloned into pcDNA 3.0 expression vector (Invitrogen). TLR4 transfected cells were also engineered to express human MD-2 co-receptor [MD-2 cDNA (Accession No. NM_015364) was cloned into the pEF-BOS vector] and were supplemented with 10 nM soluble CD14 (R&D Systems) in the media to optimize LPS responsiveness. Human TLR9 cDNA (Accession No. NM_017442) was cloned into the pBluescript II KS vector (Agilent). Human TLR7 cDNA (Accession No. NM_016562) was obtained from OriGene. HEK-293 cells stably expressing human TLR8 (Accession No. NM_138636) or mouse TLR7 (Accession No. NM_133211) were purchased from InvivoGen and were then stably transfected with pNiFty2(NF-kappaB)-luciferase reporter plasmid (InvivoGen). Each cell type was plated in Dulbecco's modified Eagle's medium (DMEM) containing 10% fetal bovine serum (FBS) at a density of 2.22×10^5 cells/ml into a 384-well plate and incubated for 2 days at 37° C., 5% CO2. Varying concentrations of antagonist compounds were then added. Cells were then incubated for another 30 minutes before adding the appropriate TLR agonist as follows (final concentrations indicated): lipopolysaccharide (LPS; Sigma) at 10 ng/ml for TLR4, CL097 (InvivoGen) at 3 ug/ml for human TLR7 and TLR8 and mouse TLR7, and CvG-2006-2A [sequence: […] (SEQ ID NO: 1) with phosphorothioate backbone, synthesized by Sigma-Aldrich] at 0.6 uM for TLR9.

With `CCN(CCO)CCCC(C)Nc1ccnc2cc(Cl)ccc12` (centres unmarked) [HCQ, hydroxychloroquine, reference compound] the IC50 (HEK-hTLR7, CL097 3 ug/ml, average of three tests, read-out: IC50 average) was 9100 nM and the IC50 (HEK-hTLR7, CL097 3 ug/ml, individual tests 1-3, read-out: IC50) was 6800 nM and 14500 nM and 5950 nM.
With `C[C@@H]1CN(c2ccc(C#N)c3ncccc23)C[C@H](C(=O)N[C@H]2CNC[C@H]2F)O1.Cl` [ER-899742, (2R,6R)-4-(8-cyanoquinolin-5-yl)-N-[(3S,4R)-4-fluoropyrrolidin-3-yl]-6-methylmorpholine-2-carboxamide hydrochloride] the IC50 (IC50, HEK-293, ligand CL097, analyte NFkB-luciferase (Table 1)) was 6 nM, the IC50 (IC50, HEK-hTLR7, CL097 3 ug/ml, individual tests 1-3) was 23 nM and 26 nM and the IC50 (IC50 average, HEK-hTLR7, CL097 3 ug/ml, average of three tests) was 24 nM.
